Data set [1] concerns the target T1, BCRP (Homo sapiens, UniProt Q9UNQ0).
T1 construct: expressed in transfected cells; host or cells: MDCKII
T1 sequence (Q9UNQ0 1-655): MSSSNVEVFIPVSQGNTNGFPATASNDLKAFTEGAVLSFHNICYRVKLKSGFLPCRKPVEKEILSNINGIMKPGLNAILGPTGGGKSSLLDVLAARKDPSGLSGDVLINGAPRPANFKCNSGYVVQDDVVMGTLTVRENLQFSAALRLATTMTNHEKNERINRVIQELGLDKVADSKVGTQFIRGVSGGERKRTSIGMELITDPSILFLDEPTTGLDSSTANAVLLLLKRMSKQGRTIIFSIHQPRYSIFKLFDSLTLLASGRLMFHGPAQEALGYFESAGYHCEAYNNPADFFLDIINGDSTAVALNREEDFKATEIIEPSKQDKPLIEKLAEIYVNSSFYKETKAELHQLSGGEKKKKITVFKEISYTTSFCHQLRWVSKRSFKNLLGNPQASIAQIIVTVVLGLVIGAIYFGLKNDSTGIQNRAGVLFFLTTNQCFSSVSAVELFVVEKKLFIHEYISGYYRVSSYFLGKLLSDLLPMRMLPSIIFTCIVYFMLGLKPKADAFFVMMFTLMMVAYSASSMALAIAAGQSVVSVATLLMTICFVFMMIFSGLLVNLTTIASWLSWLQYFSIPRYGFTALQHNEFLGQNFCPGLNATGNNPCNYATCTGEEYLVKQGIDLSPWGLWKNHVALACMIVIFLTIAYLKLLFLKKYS
The experiment in a line: Transwell assay, MDCKII cells stably expressing BCRP. Format: cell-based. The settings on record: 100 µmol/L doxorubicin; MDCKII-BCRP on Transwell. As for the experimental part:
In brief, MDCKII cells stably expressing P-gp or BCRP were seeded on 0.4 µm Transwell® membrane inserts (200.000 cells/insert; Ø6.5 mm, growth area 0.33 cm2) and allowed to differentiate for five days. The integrity of the monolayer was confirmed by monitoring the trans-epithelial electrical resistance (TEER) using the EVOMX system (WPI, Sarasota, FL, USA). […] Every 30 min, the incubation buffer was removed from the receiver compartment and replaced by a freshly preheated buffer for a total time of 2.5 h.

For data set [2], the system named is transfected cell lines and tumorous cell lines. The experiment in a line: Short-term cytotoxicity check (Presto Blue cell viability assay). Format: cell-based. As to conditions: concentrations tested (100 µmol/L), data not shown.
In data set [3] the target is T2, OCT1 (Homo sapiens, UniProt O15245).
T2 sequence (O15245 1-554): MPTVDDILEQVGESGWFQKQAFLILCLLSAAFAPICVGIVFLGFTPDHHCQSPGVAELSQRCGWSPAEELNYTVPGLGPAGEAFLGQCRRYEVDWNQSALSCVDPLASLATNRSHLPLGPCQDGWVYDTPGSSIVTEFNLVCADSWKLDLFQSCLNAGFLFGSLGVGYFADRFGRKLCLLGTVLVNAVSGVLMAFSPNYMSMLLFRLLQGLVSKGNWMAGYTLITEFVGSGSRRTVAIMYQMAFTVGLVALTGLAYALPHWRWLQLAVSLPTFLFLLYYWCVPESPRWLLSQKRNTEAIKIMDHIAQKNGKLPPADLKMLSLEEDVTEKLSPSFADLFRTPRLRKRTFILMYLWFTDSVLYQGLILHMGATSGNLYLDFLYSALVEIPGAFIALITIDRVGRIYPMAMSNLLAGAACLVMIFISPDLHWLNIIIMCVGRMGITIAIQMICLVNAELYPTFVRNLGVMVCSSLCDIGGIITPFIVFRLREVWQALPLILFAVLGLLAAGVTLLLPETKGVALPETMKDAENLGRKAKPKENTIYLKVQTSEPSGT
As to conditions: MDCKII-OCT1; doxorubicin 0–100 µmol/L; 3 min; mean ± SD.
Protocol: (§1) Cellular uptake studies: For all transport studies, cells were seeded in 24-well plates and incubated in a full growth medium at an initial density of 200,000 cells/well for 3 days. Before starting each transport experiment, cells were washed with a pre-warmed (37 °C) incubation buffer [64]. […] Protein concentration of whole cell lysate was determined to quantify cell density after each experiment using the BCA assay according to the manufacturer’s instructions (Pierce, Rockford, IL, USA).
(§2) Statistical evaluation: All experiments were performed at least three times unless otherwise noted. The OATP1A2*1–*3 and OCT1-3 net uptake was obtained by subtracting the uptake into wild-type cells from that of the transporter-transfected cells. Km and Vmax were assessed using Prism 5.01 (GraphPad Software, San Diego, CA, USA). The differences in the doxorubcin uptake in OATP1A2*1–*3 and in OCT1-3 transfected cells were adjusted to the membranous transporter protein levels in the whole cell lysate. Km and Vmax are presented as arithmetic means ± standard deviation.

The target in data set [4] is T3, OCT2 (Homo sapiens, UniProt O15244).
T3 sequence (O15244 1-555): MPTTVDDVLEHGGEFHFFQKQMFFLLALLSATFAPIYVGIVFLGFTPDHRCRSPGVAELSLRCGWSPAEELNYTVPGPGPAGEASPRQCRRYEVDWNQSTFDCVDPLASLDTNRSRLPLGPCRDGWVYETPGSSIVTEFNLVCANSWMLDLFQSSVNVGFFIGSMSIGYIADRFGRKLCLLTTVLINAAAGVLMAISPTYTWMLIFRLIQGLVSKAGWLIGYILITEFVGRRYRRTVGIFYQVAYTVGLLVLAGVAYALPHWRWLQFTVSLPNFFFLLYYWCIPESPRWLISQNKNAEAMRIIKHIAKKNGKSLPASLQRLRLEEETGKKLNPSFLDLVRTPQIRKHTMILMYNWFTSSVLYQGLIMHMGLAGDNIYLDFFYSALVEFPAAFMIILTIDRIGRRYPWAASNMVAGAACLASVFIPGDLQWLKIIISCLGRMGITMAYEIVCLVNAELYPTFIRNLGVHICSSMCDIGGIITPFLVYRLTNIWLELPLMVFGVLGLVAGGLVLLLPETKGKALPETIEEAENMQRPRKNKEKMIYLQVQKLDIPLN
As to conditions: MDCKII-OCT2.
Protocol: as §1, §2

The test system of data set [5] is OCT6. The settings on record: OCT6 affinity to doxorubicin; cited from earlier work.

As for `COc1cccc2c1C(=O)c1c(O)c3c(c(O)c1C2=O)C[C@@](O)(C(=O)CO)C[C@@H]3O[C@H]1C[C@H](N)[C@H](O)[C@H](C)O1` [doxorubicin, Doxorubicin], the “vectorial transport of doxorubicin by BCRP” value in data set [1] is given as “vectorial transport from the basolateral to the apical compartment”. Also, the “cytotoxic effects within one hour” value in data set [2] was “no cytotoxic effects”. In addition, the Vmax – broadly, the rate approached at saturating substrate – in data set [3] stood at 19.4 ± 3.78 pmol/mg/min; in data set [4] (doxorubicin 0–100 µmol/L, 3 min, mean ± SD), 37.8 ± 11.1 pmol/mg/min. Also, the “saturation of concentration-dependent OCT2-mediated uptake” value in data set [4] (incubation time 3 min, up to 100 µmol/L) is “not saturated”. The Km (commonly the concentration of substrate that gives half-maximal velocity) in data set [5] was roughly 5 µM.

These data come from article PMC8745601 (International Journal of Molecular Sciences, 2021).
